# Results: article PMC12040169 (PLOS Biology, 2025)
# Test: in vitro
# Conditions: human, hela cells, % viability
row,SMILES,"viability at 28.5 h, 10 µM [%]"
1,COc1cccc2c3c([nH]c12)C1(CCN(CCOc2ccccc2)CC1)N(C=O)CC3 [CBK039423],112
2,COc1ccc2[nH]c3c(c2c1)CCN(C=O)C31CCCN(CCC#N)C1 (stereo not shown) [CBK039445],107
3,COc1ccc2[nH]c3c(c2c1)CCNC31CCN(CC(=O)C(C)(C)C)CC1 [CBK039471],98.1
4,CC(C)(C)C(=O)CN1CCC2(CC1)NCCc1c2[nH]c2cc(F)ccc12 [CBK039568],90.2
5,O=CN1CCc2c([nH]c3ccccc23)C12CCN(CCCN1C(=O)C3CCCCC3C1=O)C2 (stereo not shown) [CBK039592],114
6,O=CN1CCc2c([nH]c3cc(F)ccc23)C12CCN(CCc1ccc3c(c1)OCO3)CC2 [CBK039614],86.5
7,COc1ccc2[nH]c3c(c2c1)CCN(C(C)=O)C31CCN(CCOc2ccccc2)C1 (stereo not shown) [CBK039626],85.5
8,COc1cccc(CN2CCCC3(C2)c2[nH]c4ccccc4c2CCN3C(C)=O)c1 (stereo not shown) [CBK039634],86.4
9,CC(=O)N1CCc2c([nH]c3c(C)cccc23)C12CCN(CCOc1ccccc1)C2 (stereo not shown) [CBK039646],85.4
10,Fc1ccc2c3c([nH]c2c1)C1(CCN(Cc2cc(F)c(F)c(F)c2)CC1)NCC3 [CBK039688],108
11,COc1cccc2c3c([nH]c12)C1(CCN(CCCC#N)CC1)N(C(C)=O)CC3 [CBK039722],99.6
12,COc1ccc2[nH]c3c(c2c1)CCNC31CCN(Cc2ccc(S(C)(=O)=O)cc2)CC1 [CBK039753],88.8
13,CC(=O)N1CCc2c([nH]c3ccccc23)C12CCN(CCc1ccccc1)CC2 [CBK039757],78.8
14,COc1cccc(CN2CCCC3(C2)NCCc2c3[nH]c3cc(F)ccc23)c1 (stereo not shown) [CBK039786],87.5
15,N#CCCN1CCC2(CC1)NCCc1c2[nH]c2ccccc12 [CBK039788],89
16,COC(=O)c1cccc(CN2CCC3(CC2)NC(=O)Cc2ccccc23)c1 [CBK039807],101
17,CCN1CCC2(CC1)NC(=O)Cc1ccccc12 [CBK039810],96
18,N#CCCCN1CCCC2(C1)NCCc1c2[nH]c2cc(F)ccc12 (stereo not shown) [CBK039826],117
19,COc1ccc2c(c1)CC(=O)NC21CCN(Cc2c(F)cccc2F)CC1 [CBK039835],93.8
20,CCN1CCC2(CC1)NC(=O)Cc1cc(OC)c(OC)c(OC)c12 [CBK039868],97.6
21,O=C1Cc2c(ccc3ccccc23)C2(CCN(CCCC(F)(F)F)CC2)N1 [CBK039912],89.6
22,Cc1ccc2[nH]c3c(c2c1)CCOC31CCN(Cc2ccccc2-c2ccccc2)CC1 [CBK039915],89.1

row,SMILES,"viability at 28.5 h, 10 µM [%]"
1,COc1cc2c(cc1OC)C1(CCN(CCc3c[nH]c4ccccc34)CC1)NC(=O)C2 [CBK039992],99.3
2,COc1cc2c(c(OC)c1OC)C1(CCN(Cc3ccc(S(C)(=O)=O)cc3)CC1)NC(=O)C2 [CBK040014],108
3,N#CCCN1CCCC2(C1)NCCc1c2[nH]c2ccccc12 (stereo not shown) [CBK040031],97
4,N#CCCCN1CCC2(CC1)OCCc1c2[nH]c2ccc(Br)cc12 [CBK040105],88.4
5,COc1cccc2c3c([nH]c12)C1(CCCN(C/C=C\c2ccccc2)C1)NCC3 (stereo not shown) [CBK040138],98.3
6,Fc1ccc2[nH]c3c(c2c1)CCOC31CCN(C/C=C\c2ccccc2)CC1 [CBK040141],70.1
7,c1csc(CCN2CCC3(C2)NCCc2c3[nH]c3ccccc23)c1 (stereo not shown) [CBK040196],111
8,c1ccc(COCCCN2CCC3(CC2)OCCc2c3[nH]c3ccccc23)cc1 [CBK040208],84.8
9,Cc1ccc2c(c1)C1(CCN(CC3CC3)CC1)NC(=O)C2 [CBK040217],94.8
10,COc1cccc(CN2CCC3(CC2)NC(=O)Cc2ccc(C)cc23)c1 [CBK040219],88.5
11,Cc1ccc2[nH]c3c(c2c1)CCOC31CCN(CCOc2cccc3c2CCCC3=O)CC1 [CBK040230],83.3
12,COc1ccccc1C(=O)CN1CCC2(CC1)OCCc1c2[nH]c2ccc(F)cc12 [CBK040238],97.6
13,COc1ccccc1CCCN1CCC2(C1)NCCc1c2[nH]c2ccccc12 (stereo not shown) [CBK040257],91
14,Cc1cccc2c3c([nH]c12)C1(CCCN(C/C=C\c2ccccc2)C1)N(C=O)CC3 (stereo not shown) [CBK040265],92.4
15,O=CN1CCc2c([nH]c3cc(F)ccc23)C12CCN(CCc1cccs1)CC2 [CBK040312],81.2
16,O=CN1CCc2c([nH]c3ccccc23)C12CCN(CC1CC1)CC2 [CBK040315],91.8
17,COc1ccc2[nH]c3c(c2c1)CCN(C=O)C31CCN(Cc2cccc(Cl)c2)C1 (stereo not shown) [CBK040376],97.3
18,CC(=O)N1CCc2c([nH]c3c(C)cccc23)C12CCN(C/C=C\c1ccccc1)C2 (stereo not shown) [CBK040414],90.8
19,COc1cccc(CN2CCC3(CC2)c2[nH]c4ccc(OCc5ccccc5)cc4c2CCN3C=O)c1 [CBK040462],101
20,c1ccc(COc2ccc3[nH]c4c(c3c2)CCNC42CCCN(CC3CC3)C2)cc1 (stereo not shown) [CBK040619],100
21,Brc1ccc2[nH]c3c(c2c1)CCOC31CCN(CC2CCCCO2)CC1 (stereo not shown) [CBK040648],87.8
22,Cn1c2c(c3ccccc31)CCOC21CCN(CC2CCCCO2)CC1 (stereo not shown) [CBK040649],87.9

row,SMILES,"viability at 28.5 h, 10 µM [%]"
1,C[C@@H]1CNCCN1c1nccnc1OCCOc1cccnc1OCCN [CBK040757T],88.8
2,O=S(=O)(NCCc1cccs1)c1cc2c(N3CCNCC3)nccc2s1 [CBK041299C],104
3,COc1ccc([C@@]23CC[C@H](NC(=O)Nc4ccc(F)c(F)c4)C[C@@H]2N(Cc2ccccc2)CC3)cc1OC [CBK041333T],94.5
4,CCn1cc(C(=O)O)c(=O)c2cnc(N3CCNCC3)nc21 [CBK041585],90.8
5,COc1ccc([C@@]23CC[C@@H](CNC(=O)c4ccc(C(F)(F)F)cc4)C[C@@H]2N(C)CC3)cc1OC [CBK042195],107
6,O=[N+]([O-])c1ccc(N2CCN(CCO)CC2)cc1NCc1ccccc1 [CBK042200],99.9
7,CN1CCN(C(=O)CNS(=O)(=O)c2ccc3ccccc3c2)CC1 [CBK042205],99.3
8,COc1ccc(Br)cc1S(=O)(=O)NCC(=O)Nc1ccc(F)cc1 [CBK042223],98.1
9,O=C(CNS(=O)(=O)Cc1ccccc1[N+](=O)[O-])Nc1ccc(F)cc1 [CBK042228],90
10,O=C(CS(=O)(=O)c1cc2c(N3CCNCC3)nccc2s1)c1ccc(N2CCCC2)cc1 [CBK042232C],81.2
11,Cc1ccc(S(=O)(=O)Nc2sccc2C(=O)O)cc1 [CBK042244],98.6
12,O=C(O)c1ccsc1NS(=O)(=O)c1ccc(Oc2ccccc2)cc1 [CBK042259],89.8
13,CN1CCN(C(=O)c2ccsc2NS(=O)(=O)Cc2ccccc2)CC1 [CBK042266],97.5
14,CN1CCN(C(=O)c2ccsc2NS(=O)(=O)/C=C/c2ccccc2)CC1 [CBK042267],104
15,CN1CCN(C(=O)c2ccsc2NS(=O)(=O)c2ccc(-c3ccccc3)cc2)CC1 [CBK042274],103
16,O=C(c1ccsc1NS(=O)(=O)c1ccc2ccccc2c1)N1CCOCC1 [CBK042278],93.7
17,O=C(c1ccsc1NS(=O)(=O)/C=C/c1ccccc1)N1CCOCC1 [CBK042285],90.8
18,O=C(c1ccsc1NS(=O)(=O)Cc1ccccc1[N+](=O)[O-])N1CCOCC1 [CBK042294],89.6
19,O=C(Nc1ccc(F)cc1)c1ccsc1NS(=O)(=O)Cc1ccccc1 [CBK042303],82.8
20,CCN(CC)C(=O)c1ccsc1NS(=O)(=O)c1cc(Br)ccc1OC [CBK042327],103
21,CC(C)c1ccc(NS(=O)(=O)c2csc3ccnc(N4CCNCC4)c23)cc1 [CBK042343C],95.8
22,O=C(O)c1ccccc1NS(=O)(=O)c1cccc2cccnc12 [CBK042358],56.7

row,SMILES,"viability at 28.5 h, 10 µM [%]"
1,CC(=O)Nc1ccc(S(=O)(=O)Nc2ccccc2C(=O)O)cc1 [CBK042361],107
2,O=C(O)c1ccccc1NS(=O)(=O)/C=C/c1ccccc1 [CBK042363],102
3,COc1ccc(S(=O)(=O)Nc2ccccc2C(=O)O)cc1OC [CBK042368],85.7
4,O=C(NCCC1=CCCCC1)Nc1ccc(F)c(F)c1F [CBK043265],89.3
5,Cc1ccc(NS(=O)(=O)c2ccc(OC(F)(F)F)cc2)c(CO)c1 [CBK043267],86.8
6,C[C@@H]1[C@H](c2ccccc2)OC(=O)N1C1CCN(S(=O)(=O)c2cccs2)CC1 [CBK043302],93.9
7,O=C1OCCN1C1CCN(S(=O)(=O)c2cccs2)CC1 [CBK043313],99.3
8,O=C(c1ccccc1NS(=O)(=O)c1cccc2cccnc12)N1CCOCC1 [CBK043338],87.1
9,O=S(=O)(NCc1cccc(F)c1)c1ccc(OC(F)(F)F)cc1 [CBK043379],88.5
10,CCCCOC(=O)c1ccc(NC(=O)NCCc2cccs2)cc1 [CBK043381],86
11,CC(C)c1ccc(S(=O)(=O)NCCC2CCN(Cc3ccccc3)CC2)cc1 [CBK043456],94.5
12,Cc1cc(C)cc(CNC(=O)NCCc2cccs2)c1 [CBK043459],103
13,CCC(C)(C)c1ccc(S(=O)(=O)Nc2ccc3ncsc3c2)cc1 [CBK043490],113
14,CCC(O)CNS(=O)(=O)c1ccc(C(C)C)cc1 (stereo not shown) [CBK043543],91.6
15,CC(C)c1ccc(S(=O)(=O)NCC(C)(C)CO)cc1 [CBK043547],110
16,O=S(=O)(Nc1cccc(C(F)(F)F)c1)c1ccc(OC(F)(F)F)cc1 [CBK043554],86.3
17,N#CCCNS(=O)(=O)c1ccc(OC(F)(F)F)cc1 [CBK043560],97.9
18,CC(C)c1ccc(S(=O)(=O)N(CCC#N)Cc2ccccc2)cc1 [CBK043565],90.7
19,CSc1ccc(NS(=O)(=O)c2ccc(NC(C)=O)c(Cl)c2)cc1 [CBK043566],108
